This note sets out measurements from US20160024414A1, “IONIC LIQUIDS AS L[…] BASE STOCKS, COBASE STOCKS AND MULTI[…]” ([…] AND ENGINEERING COMPANY, priority 2012, published 2016).

A value given as a limit tells only on which side of the number the result lay.

Data set [1] can be described thus: Kinematic viscosity (ASTM D-445). The class given is physicochemical. Here is the method:
The kinematic viscosity (Kv) of the ionic liquid products of Examples 2-5, 7 and 8 was measured using ASTM standards D-445 and reported at temperatures of 100° C. (Kv at 100° C.) or 40° C. (Kv at 40° C.). The viscosity index (VI) was measured according to ASTM standard D-2270 using the measured kinematic viscosities for each product.

Regarding “1-butyl-3-hexylimidazolium bis(2-ethylhexyl) phosphate [Example 7]”, the “solubility in AN (alkylated naphthalene)” value (solvent: AN (alkylated naphthalene)) came to 5%. With “dihexadecyldimethylammonium bis(2-ethylhexyl) phosphate [Example 8]”, the “solubility in PAO4 (in words)” value (solvent: PAO4) was “soluble”. As to “tetradecylammonium bis(2-ethylhexyl) phosphate [Example 4]”, in data set [1], the “Kv100 (kinematic viscosity at 100° C.)” value is on record as more than 150 cSt.
